Measured values taken from patent publication US20260325506A1, “METHODS OF TREATING POST-TRAUMATIC STRESS DISORDER AND ALCOHOL USE DISORDER” (FLORIDA ATLANTIC UNIVERSITY RESEARCH CORPORATION, priority 2023, published 2026).
Entries after “also recorded” stand apart in the source; their conditions may differ.

Legend:
[1] = test system: SPS-induced allodynia and anxiety-like behaviors; settings: less selective NOP receptor antagonist than SB; cited from earlier work
[2] = test system: SPS induced anxiety-like behaviors in Sprague Dawley (SD) rats; assay: Elevated Plus Maze (EPM), SPS induced anxiety-like behaviors; type: in vivo; settings: for Anxiety index (FIG. 3B): female SD rats (n=6, not yet fully powered)
Method: (§1) SPS procedure: 2 h of complete restraint in disposable plastic holders, followed by grouped (2-3 rats) forced swim for 20 min in a cylindrical tank (46 cm tall×20 cm in diameter) filled with 22-25° C. water to a depth of 30 cm. After 15 min recovery and drying period, rats are exposed to diethyl ether until loss of consciousness and left undisturbed (except for drug or vehicle injection) and alone for 7 days, after which they are pair housed. All rats are housed with soft bedding, observed for signs of pain or discomfort: weight loss, lack of grooming, or porphyrin staining; any such rats is excluded from study.
Elevated Plus Maze (EPM): Rats will be tested for anxiety-like behaviors. The percentage of open arm entries (number of entries into the open arms divided by total number of entries in both arms), time spent in the open arms, total distance traveled, and total time spent immobile are noted. The anxiety index (AI) is calculated where total exploration on the maze represents the total number of arm entries: Anxiety Index=1−[[(time spent in open arms/total time on the maze (300 sec))+(number of entries into open arms/total number of arm entries)]/2]. Each animal is tested at 9 and 30 days post-SPS.
(§2) Drug Treatment: PPL-138 (0.3 and 1 mg/kg) is dissolved in the same vehicle as 10 mg/kg SB (3% DMSO+97% of 0.5% hydroxypropyl cellulose (HPC)). Drug treatment (i.p.) begins immediately after exposure to ether and continues every other day thereafter. Ctr and SPS rats receive vehicle (3% DMSO+97% 0.5% HPC) injections.
Anxiety index reflects a combination of three anxiety-like behaviors.
(§3) Control (Ctr) and SPS-treated male and female SD rats are treated 3 times each week with Veh, PPL-138 (0.3 and 1 mg/kg, s.c.) or the NOP antagonist SB612111 (SB; 3 mg/kg, i.p.). […] SB alleviates TBI- and 6-OHDA Parkinson disease model-induced locomotor deficits and brain hypoxia.

[3] = test system: SPS-induced allodynia in Sprague Dawley (SD) rats; assay: tactile sensitivity (allodynia), paw withdrawal threshold (PWT) after SPS; type: in vivo; settings: for paw withdrawal threshold, allodynia (FIG. 2A): male SD rats, 1 mg/kg i.p., days 14, 21 and 28, SPS vs SPS+PPL-138, p<0.05 (Tukey); for allodynia (PWT, FIG. 4A): male SPS rats
Method: as §1, §2
(§4) Degree of enhanced nociceptive sensitivity by SPS to tactile and thermal stimuli were reduced in this cohort likely a result of group housing during the first 7 days instead of our usual solo housing (FIG. 2). […] PPL-138 reduced serum N/OFQ levels compared to SPS (p<0.05 by Tukey's post-hoc test).
as §3
(§5) Sensitivity to tactile and thermal sensitivity in males and females was determined by paw withdrawal threshold to increasing pressure (PWT; tactile) and paw withdrawal latency to a thermal stimulus (PWL) (FIG. 4). There was a significant interaction between time and treatment for sensitivity to both tactile (A) and thermal (C) stimuli for males ([F (28, 228)=1.708, p=0.0182] and [F (28, 228)=4.276, p<0.0001]), respectively, as well as for thermal sensitivity (D) in females [F (28, 164)=2.286, p=0.0007]. […] Allodynia was reversed by 0.3 mg/kg PPL-138 and by SB in males, and by 1 mg/kg PPL-138 in females (#p<0.05). Thermal hyperalgesia was reversed by both doses of PPL-138 and SB in males, and by 1 mg/kg PPL-138 and SB in females.

[4] = test system: SPS-induced thermal hyperalgesia in Sprague Dawley (SD) rats; assay: thermal sensitivity (hyperalgesia), paw withdrawal latency (PWL) after SPS; type: in vivo; settings: for thermal hyperalgesia (PWL, FIG. 4D): female SPS rats; for thermal hyperalgesia (PWL, FIG. 4D) / thermal hyperalgesia (PWL, FIG. 4C): 28 days; for thermal hyperalgesia (PWL, FIG. 4C): male SPS rats
Method: as §1, §2, §4, §3, §5

[5] = test system: N/OFQ; assay: serum N/OFQ levels after SPS; type: in vivo, Sprague Dawley (SD) rats; settings: end of pilot study, compared to SPS, p<0.05 (Tukey); ANOVA F (2, 12)=4.147, p=0.0421
Method: as §1, §2, §4

[6] = molecular target: mu opioid receptor; settings: all four members of the opioid receptor family; cited from earlier work
[7] = molecular target: kappa opioid receptor; settings: all four members of the opioid receptor family; cited from earlier work
[8] = molecular target: delta opioid receptor; settings: all four members of the opioid receptor family; cited from earlier work
[9] = molecular target: NOP receptor; settings: all four members of the opioid receptor family; cited from earlier work
[10] = test system: mu opioid receptor; settings: less than buprenorphine; cited from earlier work
[11] = test system: NOP receptor; settings: higher than buprenorphine; cited from earlier work
[12] = test system: kappa receptor; settings: PPL-138 like buprenorphine; cited from earlier work
[13] = test system: delta receptor; settings: PPL-138 like buprenorphine; cited from earlier work
[14] = test system: TBI-induced locomotor deficits and brain hypoxia; settings: cited from earlier work
[15] = test system: 6-OHDA Parkinson disease model-induced locomotor deficits and brain hypoxia; settings: cited from earlier work
[16] = test system: neuropathy; settings: models of neuropathy; cited from earlier work
[17] = test system: irritable bowel syndrome (IBS); settings: models of irritable bowel syndrome (IBS); cited from earlier work

## CCc1ccc(OCc2ccccc2C(=O)Nc2ccc3nc(C)cc(N)c3c2)cc1 [JTC-801]
[1]
  SPS-induced allodynia: reversed
  SPS-induced anxiety-like behaviors: reversed

## O=C(CCc1ccccc1)O[C@@]12CCC(=O)[C@@H]3Oc4c(O)ccc5c4[C@@]31CCN(CC1CC1)[C@@H]2C5 [PPL-138, 14β-(3-phenylpropanoyl)-17-cyclopropylmethyl-7,8-dihydronoroxymorphinone]
[2]; PPL-138 1 mg/kg s.c., day 30 post-SPS
  Anxiety index (FIG. 3B): significant effect
[2]; female SD rats, overall statement
  anxiety-like behaviors (FIG. 3B): reduces
[2]; male SD rats, 1 mg/kg i.p., between groups (Ctr, SPS, SPS+PPL-138)
  distance travelled: no differences
[2]; male SD rats, 1 mg/kg i.p., days 9 and 30 post-SPS, treatment F (2,12)=5.066, p<0.05, PPL 138+SPS vs SPS *p<0.05, **p<0.01 (Tukey), 1 mg/kg
  open arm time (FIG. 1B): increased; also recorded: significant effect
[2]; male SD rats, 1 mg/kg i.p., days 9 and 30 post-SPS, treatment F (2,12)=9.912, p<0.005, PPL 138+SPS vs SPS *p<0.05, **p<0.01 (Tukey), 1 mg/kg
  anxiety index (FIG. 1A): reduced; also recorded: significant effect
[2]; male SD rats, 1 mg/kg i.p., days 9 and 30 post-SPS, treatment F (2,12)=11.99, p<0.005, PPL 138+SPS vs SPS *p<0.05, **p<0.01 (Tukey), 1 mg/kg
  open arm entries (FIG. 1C): increased; also recorded: significant effect
[2]; male SD rats, PPL-138 0.3 mg/kg s.c., day 30 post-SPS
  Anxiety index (FIG. 3A): significant effects
[2]; male SD rats, PPL-138 1 mg/kg s.c., day 9 post-SPS
  Anxiety index (FIG. 3A): significant effect
[2]; male SD rats, PPL-138 1 mg/kg s.c., day 30 post-SPS
  Anxiety index (FIG. 3A): significant effects
[2]; male SD rats, overall statement
  anxiety-like behaviors (FIG. 3A): reduces
[2]; males and females, overall conclusion
  development of PTSD-induced anxiety-like behaviors: reverses
[3]; SD rats, overall statement
  allodynia (FIG. 4): reduces
[3]; female SPS rats, PPL-138 1 mg/kg s.c., 28 days, #p<0.05
  allodynia (PWT, FIG. 4B): reversed
[3]; 1 mg/kg
  paw withdrawal threshold, allodynia (FIG. 2A): SPS rats had significantly lower paw withdrawal threshold
[3]; listed as PPL 138, 1 mg/kg
  paw withdrawal threshold, allodynia (FIG. 2A): reversed
[3]; PPL-138 0.3 mg/kg s.c., 28 days, #p<0.05
  allodynia (PWT, FIG. 4A): reversed
[3]; males and females, overall conclusion (tactile and thermal)
  development of PTSD-induced nociceptive sensitivity: reverses
[4]; SD rats, overall statement
  hyperalgesia (FIG. 4): reduces
[4]; PPL-138 1 mg/kg s.c.
  thermal hyperalgesia (PWL, FIG. 4D): reversed
[4]; male SD rats, 1 mg/kg i.p., treatment F (2, 12)=7.56, p<0.01
  thermal sensitivity (FIG. 2B): reversed
[4]; PPL-138 0.3 mg/kg s.c. (both doses)
  thermal hyperalgesia (PWL, FIG. 4C): reversed
[4]; PPL-138 1 mg/kg s.c. (both doses)
  thermal hyperalgesia (PWL, FIG. 4C): reversed
[5]
  serum N/OFQ levels: reduced
[6]
  Ki: < 10 nM
[7]
  Ki: < 10 nM
[8]
  Ki: < 10 nM
[9]
  Ki: < 10 nM
[10]
  efficacy at mu: very low efficacy
[11]
  partial agonist activity at NOP receptor: partial agonist
[12]
  activity at kappa receptor: antagonist
[13]
  activity at delta receptor: antagonist

## Cc1cccc2c1CC[C@H](CN1CCC(c3c(Cl)cccc3Cl)CC1)C[C@@H]2O [SB612111]
[2]; SB 3 mg/kg i.p., day 9 post-SPS
  Anxiety index (FIG. 3B): significant effect
[2]; male SD rats, SB 3 mg/kg i.p., day 30 post-SPS
  Anxiety index (FIG. 3A): significant effects
[3]; SB 3 mg/kg i.p., 28 days, #p<0.05
  allodynia (PWT, FIG. 4A): reversed
[4]; SB 3 mg/kg i.p.
  thermal hyperalgesia (PWL, FIG. 4D): reversed
  thermal hyperalgesia (PWL, FIG. 4C): reversed
[14]
  brain hypoxia: alleviates
  locomotor deficits: alleviates
[15]
  brain hypoxia: alleviates
  locomotor deficits: alleviates
[16]
  antinociception: produces antinociception
[17]
  antinociception: produces antinociception

## CO[C@@]12CC[C@@]3(C[C@@H]1[C@](C)(O)C(C)(C)C)[C@H]1Cc4ccc(O)c5c4[C@@]3(CCN1CC1CC1)[C@H]2O5 [buprenorphine, reference compound]
[12]
  activity at kappa receptor: antagonist
[13]
  activity at delta receptor: antagonist
